# Experimental data published in patent US20250382344A1, “Soluble GLP1/GIP/NPY2 Receptor Triple Agonists” (Boehringer Ingelheim International GmH, priority 2024, published 2025).
# Where two headings read alike, the source gives them in different places.
# Columns and labels:
# hNPY2R = biological target: T1, hNPY2R (Homo sapiens, UniProt P49146); test: hNPY2R CreLuc assay in 0.5% and 100% plasma (HEK-293 CRE-luciferase reporter cells); assay type: cell-based; settings: HEK-293 reporter cells
# T1 construct: expressed in transfected cells; host or cells: HEK-293 CRE-luciferase reporter cells
# T1 sequence (P49146 1-381): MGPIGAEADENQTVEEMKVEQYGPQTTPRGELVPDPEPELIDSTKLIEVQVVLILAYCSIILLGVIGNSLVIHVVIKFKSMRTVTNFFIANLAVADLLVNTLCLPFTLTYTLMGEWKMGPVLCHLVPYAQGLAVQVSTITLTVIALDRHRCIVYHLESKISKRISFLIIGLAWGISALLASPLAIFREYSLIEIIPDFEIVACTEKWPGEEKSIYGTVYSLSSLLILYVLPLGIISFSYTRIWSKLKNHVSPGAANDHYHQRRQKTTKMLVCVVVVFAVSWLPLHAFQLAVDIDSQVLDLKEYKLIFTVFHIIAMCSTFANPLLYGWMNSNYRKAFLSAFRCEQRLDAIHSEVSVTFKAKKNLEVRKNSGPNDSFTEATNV
# [1] = Solubility in 0.1 M phosphate buffer at pH 7; assay type: physicochemical; settings: 0.1 M phosphate buffer at pH 7, 10 mg/mL final peptide concentration, shaking 2 hours at room temperature, peptides as TFA-salts; measured sample pH 6.5-7.0
# hGLP1R = biological target: T2, hGLP1R (Homo sapiens, UniProt P43220); test: hGLP1R CreLuc assay in 0.5% and 100% plasma (HEK-293 CRE-luciferase reporter cells); assay type: cell-based; settings: HEK-293 reporter cells
# T2 construct: expressed in transfected cells; host or cells: HEK-293 CRE-luciferase reporter cells
# hGIPR = biological target: T3, hGIPR (Homo sapiens, UniProt P48546); test: hGIPR CreLuc assay in 0.5% and 100% plasma (CHO CRE-luciferase reporter cells); assay type: cell-based
# T3 construct: expressed in transfected cells; host or cells: CHO CRE-luciferase reporter cells
# T3 sequence (P48546 22-466): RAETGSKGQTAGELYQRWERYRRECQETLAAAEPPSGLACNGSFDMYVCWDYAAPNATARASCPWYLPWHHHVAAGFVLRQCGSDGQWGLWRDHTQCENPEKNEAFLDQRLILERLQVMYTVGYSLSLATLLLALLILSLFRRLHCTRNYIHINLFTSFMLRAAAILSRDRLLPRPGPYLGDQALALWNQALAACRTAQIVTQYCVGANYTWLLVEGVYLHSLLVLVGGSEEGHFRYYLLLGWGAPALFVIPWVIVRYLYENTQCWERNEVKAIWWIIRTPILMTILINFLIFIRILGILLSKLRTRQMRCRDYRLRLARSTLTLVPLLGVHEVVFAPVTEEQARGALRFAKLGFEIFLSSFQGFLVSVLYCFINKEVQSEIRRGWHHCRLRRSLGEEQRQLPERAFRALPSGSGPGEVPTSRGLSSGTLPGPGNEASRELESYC
# [2] = 100% human plasma, read-out: hNPY2R 100% hP
# [3] = 0.5% human plasma, read-out: hGLP1R 0.5% hP
# [4] = 0.5% human plasma, read-out: hGIPR 0.5% hP
# [5] = 100% human plasma, read-out: hGLP1R 100% hP
# [6] = 100% human plasma, read-out: hGIPR 100% hP
# [7] = 0.5% human plasma, read-out: hNPY2R 0.5% hP
# T2 sequence (P43220 24-463): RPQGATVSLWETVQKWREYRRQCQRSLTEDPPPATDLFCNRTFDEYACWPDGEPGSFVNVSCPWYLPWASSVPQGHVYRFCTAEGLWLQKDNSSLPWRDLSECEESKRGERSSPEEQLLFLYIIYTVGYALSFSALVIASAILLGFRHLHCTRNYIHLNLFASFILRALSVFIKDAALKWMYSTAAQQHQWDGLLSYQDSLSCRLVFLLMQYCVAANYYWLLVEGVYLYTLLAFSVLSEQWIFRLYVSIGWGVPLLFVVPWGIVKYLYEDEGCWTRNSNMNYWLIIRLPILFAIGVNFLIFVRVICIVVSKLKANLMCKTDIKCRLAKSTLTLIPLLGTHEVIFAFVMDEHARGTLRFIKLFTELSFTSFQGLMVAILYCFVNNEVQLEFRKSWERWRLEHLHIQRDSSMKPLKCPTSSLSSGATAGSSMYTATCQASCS
EC50 (hNPY2R; [2]) [nM],solubility at 2 h [1] [µg/mL],EC50 (hGLP1R; [3]) [nM],EC50 (hGIPR; [4]) [nM],EC50 (hGLP1R; [5]) [nM],EC50 (hGIPR; [6]) [nM],EC50 (hNPY2R; [7]) [nM],Compound
523,4500,0.7,0.7,,,,"CC[C@H](C)[C@H](NC(=O)[C@H](CC(C)C)NC(=O)[C@H](CCC(N)=O)NC(=O)[C@H](CCCNC(=N)N)NC(=O)[C@@H](NC(=O)[C@H](Cc1ccccc1)NC(=O)[C@H](C)NC(=O)C(C)(C)NC(=O)[C@H](CCC(N)=O)NC(=O)[C@H](C)NC(=O)[C@H](CCC(N)=O)NC(=O)[C@H](CCCCN)NC(=O)[C@H](CCC(=O)O)NC(=O)[C@H](CC(C)C)NC(=O)C(C)(C)NC(=O)[C@@H](NC(=O)[C@H](CO)NC(=O)[C@H](Cc1ccc(O)cc1)NC(=O)[C@H](CC(=O)O)NC(=O)[C@H](CO)NC(=O)[C@@H](NC(=O)[C@H](Cc1ccccc1)NC(=O)[C@@H](NC(=O)CNC(=O)[C@H](CCC(=O)O)NC(=O)C(C)(C)NC(=O)[C@@H](N)Cc1ccc(O)cc1)[C@@H](C)O)[C@@H](C)O)[C@@H](C)CC)C(C)C)C(=O)N[C@@H](CC(N)=O)C(=O)N[C@@H](CCCCNC(=O)CC[C@H](NC(=O)CC[C@H](NC(=O)CC[C@H](NC(=O)CC[C@H](NC(=O)CC[C@H](NC(=O)CCCCCCCCCCCCCCCCC(=O)O)C(=O)O)C(=O)O)C(=O)O)C(=O)O)C(=O)O)C(=O)NC(C)(C)C(=O)N[C@H](C(=O)N[C@@H](CCCNC(=N)N)C(=O)N[C@@H](CCC(N)=O)C(=O)N[C@@H](CCCNC(=N)N)C(=O)N[C@@H](Cc1ccc(O)cc1)C(N)=O)[C@@H](C)O [Compound 50, Y-Aib-E-G-T-F-T-S-D-Y-S-I-Aib-L-E-K-Q-A-Q-Aib-A-F-V-R-Q-L-I-N-K(1,3)-Aib-T-R-Q-R-Y-NH2.C18DA-gGlu-gGlu-gGlu-gGlu-gGlu(1,2)]"
89.8,10300,,0.5,7,5.6,,"CC[C@H](C)[C@H](NC(=O)[C@H](CC(C)C)NC(=O)[C@H](Cc1c[nH]cn1)NC(=O)[C@H](CCCNC(=N)N)NC(=O)[C@@H](NC(=O)[C@H](Cc1ccccc1)NC(=O)[C@H](C)NC(=O)[C@H](Cc1ccc(O)cc1)NC(=O)[C@H](CCC(N)=O)NC(=O)[C@H](C)NC(=O)[C@H](CCC(N)=O)NC(=O)[C@H](CCCCN)NC(=O)[C@H](CCC(=O)O)NC(=O)[C@H](CC(C)C)NC(=O)C(C)(C)NC(=O)[C@@H](NC(=O)[C@H](CO)NC(=O)[C@H](Cc1ccc(O)cc1)NC(=O)[C@H](CC(=O)O)NC(=O)[C@H](CO)NC(=O)[C@@H](NC(=O)[C@H](Cc1ccccc1)NC(=O)[C@@H](NC(=O)CNC(=O)[C@H](CCC(=O)O)NC(=O)C(C)(C)NC(=O)[C@@H](N)Cc1ccc(O)cc1)[C@@H](C)O)[C@@H](C)O)[C@@H](C)CC)C(C)C)C(=O)N[C@@H](CC(N)=O)C(=O)N[C@@H](CCCCNC(=O)[C@@H](N)CCCCNC(=O)CC[C@H](NC(=O)CC[C@H](NC(=O)CC[C@H](NC(=O)CC[C@H](NC(=O)CC[C@H](NC(=O)CC[C@H](NC(=O)CCCCCCCCCCCCCCCCC(=O)O)C(=O)O)C(=O)O)C(=O)O)C(=O)O)C(=O)O)C(=O)O)C(=O)NC(C)(C)C(=O)N[C@H](C(=O)N[C@@H](CCCNC(=N)N)C(=O)N[C@@H](CCC(N)=O)C(=O)N[C@@H](CCCNC(=N)N)C(=O)N[C@@H](Cc1ccc(O)cc1)C(N)=O)[C@@H](C)O [Compound 151, Y-Aib-E-G-T-F-T-S-D-Y-S-I-Aib-L-E-K-Q-A-Q-Y-A-F-V-R-H-L-I-N-K(1,3)-Aib-T-R-Q-R-Y-NH2.C18DA-gGlu-gGlu-gGlu-gGlu-gGlu-gGlu-eLys(1,2)]"
387,4800,0.3,0.1,0.9,6.2,16.8,"CC[C@H](C)[C@H](NC(=O)[C@H](CC(C)C)NC(=O)[C@H](Cc1c[nH]cn1)NC(=O)[C@H](CCCNC(=N)N)NC(=O)[C@@H](NC(=O)[C@H](Cc1ccccc1)NC(=O)[C@H](CCC(=O)O)NC(=O)C(C)(C)NC(=O)[C@H](CCC(N)=O)NC(=O)[C@H](C)NC(=O)[C@H](CCC(N)=O)NC(=O)[C@H](CCCCN)NC(=O)[C@H](CCC(=O)O)NC(=O)[C@H](CC(C)C)NC(=O)C(C)(C)NC(=O)[C@@H](NC(=O)[C@H](CO)NC(=O)[C@H](Cc1ccc(O)cc1)NC(=O)[C@H](CC(=O)O)NC(=O)[C@H](CO)NC(=O)[C@@H](NC(=O)[C@H](Cc1ccccc1)NC(=O)[C@@H](NC(=O)CNC(=O)[C@H](CCC(=O)O)NC(=O)C(C)(C)NC(=O)[C@@H](N)Cc1ccc(O)cc1)[C@@H](C)O)[C@@H](C)O)[C@@H](C)CC)C(C)C)C(=O)N[C@@H](CC(N)=O)C(=O)N[C@@H](CCCCNC(=O)CCCCCNC(=O)CC[C@H](NC(=O)CC[C@H](NC(=O)CC[C@H](NC(=O)CC[C@H](NC(=O)CC[C@H](NC(=O)CCCCCCCCCCCCCCCCC(=O)O)C(=O)O)C(=O)O)C(=O)O)C(=O)O)C(=O)O)C(=O)NC(C)(C)C(=O)N[C@H](C(=O)N[C@@H](CCCNC(=N)N)C(=O)N[C@@H](CCC(N)=O)C(=O)N[C@@H](CCCNC(=N)N)C(=O)N[C@@H](Cc1ccc(O)cc1)C(N)=O)[C@@H](C)O [Compound 14, Y-Aib-E-G-T-F-T-S-D-Y-S-I-Aib-L-E-K-Q-A-Q-Aib-E-F-V-R-H-L-I-N-K(1,3)-Aib-T-R-Q-R-Y-NH2.C18DA-gGlu-gGlu-gGlu-gGlu-gGlu-AHX(1,2)]"
,9000,0.1,0.3,,,17.5,"CC[C@H](C)[C@H](NC(=O)[C@H](CC(C)C)NC(=O)[C@H](Cc1c[nH]cn1)NC(=O)[C@H](CCCNC(=N)N)NC(=O)[C@@H](NC(=O)[C@H](Cc1ccccc1)NC(=O)[C@H](CCC(=O)O)NC(=O)C(C)(C)NC(=O)[C@H](CCC(N)=O)NC(=O)[C@H](C)NC(=O)[C@H](CCC(N)=O)NC(=O)[C@H](CCCCN)NC(=O)[C@H](CC(=O)O)NC(=O)[C@H](CC(C)C)NC(=O)C(C)(C)NC(=O)[C@@H](NC(=O)[C@H](CO)NC(=O)[C@H](Cc1ccc(O)cc1)NC(=O)[C@H](CC(=O)O)NC(=O)[C@H](CO)NC(=O)[C@@H](NC(=O)[C@H](Cc1ccccc1)NC(=O)[C@@H](NC(=O)CNC(=O)[C@H](CCC(=O)O)NC(=O)C(C)(C)NC(=O)[C@@H](N)Cc1ccc(O)cc1)[C@@H](C)O)[C@@H](C)O)[C@@H](C)CC)C(C)C)C(=O)N[C@@H](CC(N)=O)C(=O)N[C@@H](CCCCNC(=O)[C@@H](N)CCCCNC(=O)CC[C@H](NC(=O)CC[C@H](NC(=O)CC[C@H](NC(=O)CC[C@H](NC(=O)CC[C@H](NC(=O)CC[C@H](NC(=O)CCCCCCCCCCCCCCCCC(=O)O)C(=O)O)C(=O)O)C(=O)O)C(=O)O)C(=O)O)C(=O)O)C(=O)NC(C)(C)C(=O)N[C@H](C(=O)N[C@@H](CCCNC(=N)N)C(=O)N[C@@H](CCC(N)=O)C(=O)N[C@@H](CCCNC(=N)N)C(=O)N[C@@H](Cc1ccc(O)cc1)C(N)=O)[C@@H](C)O [Compound 131, Y-Aib-E-G-T-F-T-S-D-Y-S-I-Aib-L-D-K-Q-A-Q-Aib-E-F-V-R-H-L-I-N-K(1,3)-Aib-T-R-Q-R-Y-NH2.C18DA-gGlu-gGlu-gGlu-gGlu-gGlu-gGlu-eLys(1,2)]"
476,4900,0.3,0.3,,14.2,,"CC[C@H](C)[C@H](NC(=O)[C@H](CC(C)C)NC(=O)[C@H](Cc1c[nH]cn1)NC(=O)[C@H](CCCNC(=N)N)NC(=O)[C@@H](NC(=O)[C@H](Cc1ccccc1)NC(=O)[C@H](CCC(=O)O)NC(=O)C(C)(C)NC(=O)[C@H](CCC(N)=O)NC(=O)[C@H](C)NC(=O)[C@H](CCC(N)=O)NC(=O)[C@H](CCCCN)NC(=O)[C@H](CCC(=O)O)NC(=O)[C@H](CC(C)C)NC(=O)C(C)(C)NC(=O)[C@@H](NC(=O)[C@H](CO)NC(=O)[C@H](Cc1ccc(O)cc1)NC(=O)[C@H](CC(=O)O)NC(=O)[C@H](CO)NC(=O)[C@@H](NC(=O)[C@H](Cc1ccccc1)NC(=O)[C@@H](NC(=O)CNC(=O)[C@H](CCC(=O)O)NC(=O)C(C)(C)NC(=O)[C@@H](N)Cc1ccc(O)cc1)[C@@H](C)O)[C@@H](C)O)[C@@H](C)CC)C(C)C)C(=O)N[C@@H](CC(N)=O)C(=O)N[C@@H](CCCCNC(=O)COCCOCCNC(=O)CC[C@H](NC(=O)CC[C@H](NC(=O)CC[C@H](NC(=O)CC[C@H](NC(=O)CC[C@H](NC(=O)CCCCCCCCCCCCCCCCC(=O)O)C(=O)O)C(=O)O)C(=O)O)C(=O)O)C(=O)O)C(=O)NC(C)(C)C(=O)N[C@H](C(=O)N[C@@H](CCCNC(=N)N)C(=O)N[C@@H](CCC(N)=O)C(=O)N[C@@H](CCCNC(=N)N)C(=O)N[C@@H](Cc1ccc(O)cc1)C(N)=O)[C@@H](C)O [Compound 8, Y-Aib-E-G-T-F-T-S-D-Y-S-I-Aib-L-E-K-Q-A-Q-Aib-E-F-V-R-H-L-I-N-K(1,3)-Aib-T-R-Q-R-Y-NH2.C18DA-gGlu-gGlu-gGlu-gGlu-gGlu-OEG(1,2)]"
